# Measured values reported in US11053225B2, “Pyrimidine derivative compound, optical isomer thereof, or pharmaceutically acceptable salt thereof, and composition for preventing or treating Tyro 3 related disease comprising same as active ingredient” (KOREA RESEARCH INSTITUTE OF CHEMICAL TECHNOLOGY, priority 2017, dated 2021).
# How the values were obtained:
# Axl = Axl (Homo sapiens (Human), UniProt P30530); test: Axl kinase inhibition assay (Cisbio method, Eu-labeled antibody to phosphorylated peptide); details: read-out: IC50 (μM) Axl; 1 hour reaction with substrate peptide and ATP
# Procedure: (§1) For evaluation of inhibitory activities of the compounds according to the present invention on Tyro 3, Axl, and Mer, the following test was carried out.
# (§2) The specific test method followed the method provided by Cisbio. The compounds of the examples were prepared at various concentrations, followed by addition of Tyro 3, Axl, or Mer and substrate peptides, and then ATP was added to initiate a reaction. After 1 hour, the reaction was stopped by addition of a solution containing EDTA. Thereafter, the amount of phosphorylated peptides was measured. Here, the phosphorylated peptides were treated with an europium (Eu)-labeled antibody recognizing phosphorylated peptides, and then after 1 hour, excited by irradiation of the light of a wavelength of 320 or 340 nm using an Envision Reader.
# Tyro 3 = Tyro 3 (Homo sapiens (Human), UniProt Q06418); test: Tyro 3 kinase inhibition assay (Cisbio method, Eu-labeled antibody to phosphorylated peptide); details: read-out: IC50 (μM) Tyro 3; 1 hour reaction with substrate peptide and ATP
# Procedure: as §1, §2
# Mer = Mer (Homo sapiens (Human), UniProt Q12866); test: Mer kinase inhibition assay (Cisbio method, Eu-labeled antibody to phosphorylated peptide); details: read-out: IC50 (μM) Mer; 1 hour reaction with substrate peptide and ATP
# Sequence of Mer (Q12866 21-999): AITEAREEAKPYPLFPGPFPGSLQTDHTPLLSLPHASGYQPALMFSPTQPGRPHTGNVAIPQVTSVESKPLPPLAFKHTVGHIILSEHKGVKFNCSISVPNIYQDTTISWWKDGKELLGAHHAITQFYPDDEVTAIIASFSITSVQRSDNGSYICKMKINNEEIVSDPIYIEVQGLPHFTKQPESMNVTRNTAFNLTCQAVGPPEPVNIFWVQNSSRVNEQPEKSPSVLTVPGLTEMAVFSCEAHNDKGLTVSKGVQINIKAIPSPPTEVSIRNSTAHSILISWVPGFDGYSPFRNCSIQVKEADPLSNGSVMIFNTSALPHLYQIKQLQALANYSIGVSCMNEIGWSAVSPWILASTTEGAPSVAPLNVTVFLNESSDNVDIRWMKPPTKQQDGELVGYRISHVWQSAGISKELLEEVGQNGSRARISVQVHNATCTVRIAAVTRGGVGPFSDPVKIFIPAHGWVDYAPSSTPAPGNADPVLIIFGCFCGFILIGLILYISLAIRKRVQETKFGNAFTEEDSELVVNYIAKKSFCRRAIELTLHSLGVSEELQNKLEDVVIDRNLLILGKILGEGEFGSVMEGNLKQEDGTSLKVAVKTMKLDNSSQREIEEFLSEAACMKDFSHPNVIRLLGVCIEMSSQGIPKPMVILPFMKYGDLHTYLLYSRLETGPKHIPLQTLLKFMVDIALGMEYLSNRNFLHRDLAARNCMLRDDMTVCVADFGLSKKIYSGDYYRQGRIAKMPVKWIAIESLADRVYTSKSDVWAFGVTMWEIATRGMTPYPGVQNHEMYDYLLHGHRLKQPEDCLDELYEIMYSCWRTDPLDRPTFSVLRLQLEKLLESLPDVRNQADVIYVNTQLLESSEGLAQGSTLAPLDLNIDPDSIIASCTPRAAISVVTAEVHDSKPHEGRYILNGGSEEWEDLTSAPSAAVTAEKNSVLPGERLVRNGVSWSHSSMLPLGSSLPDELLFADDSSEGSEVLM
# Procedure: as §1, §2
# Sequence of Axl (P30530 26-894): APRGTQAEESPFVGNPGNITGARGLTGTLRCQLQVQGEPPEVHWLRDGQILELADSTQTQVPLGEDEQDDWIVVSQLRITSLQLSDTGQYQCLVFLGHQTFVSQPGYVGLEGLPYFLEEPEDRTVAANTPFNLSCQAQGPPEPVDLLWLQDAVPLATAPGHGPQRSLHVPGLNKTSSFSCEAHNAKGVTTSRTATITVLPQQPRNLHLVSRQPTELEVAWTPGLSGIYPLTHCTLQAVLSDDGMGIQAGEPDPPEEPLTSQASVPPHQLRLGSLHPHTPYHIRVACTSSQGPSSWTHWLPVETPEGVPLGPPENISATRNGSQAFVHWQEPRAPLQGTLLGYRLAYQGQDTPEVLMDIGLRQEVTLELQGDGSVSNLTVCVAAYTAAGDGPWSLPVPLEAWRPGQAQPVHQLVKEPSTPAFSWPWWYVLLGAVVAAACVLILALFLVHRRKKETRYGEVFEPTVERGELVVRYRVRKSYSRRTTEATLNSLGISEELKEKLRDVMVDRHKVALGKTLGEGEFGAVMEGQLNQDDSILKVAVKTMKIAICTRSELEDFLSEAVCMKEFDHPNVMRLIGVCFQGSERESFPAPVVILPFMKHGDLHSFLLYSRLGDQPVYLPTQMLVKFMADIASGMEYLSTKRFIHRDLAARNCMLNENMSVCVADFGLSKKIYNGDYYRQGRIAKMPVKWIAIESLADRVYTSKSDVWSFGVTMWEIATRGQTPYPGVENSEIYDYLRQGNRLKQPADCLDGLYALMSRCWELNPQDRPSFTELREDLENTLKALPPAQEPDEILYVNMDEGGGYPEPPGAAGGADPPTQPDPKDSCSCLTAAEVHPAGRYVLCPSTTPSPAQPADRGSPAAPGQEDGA
# Sequence of Tyro 3 (Q06418 41-890): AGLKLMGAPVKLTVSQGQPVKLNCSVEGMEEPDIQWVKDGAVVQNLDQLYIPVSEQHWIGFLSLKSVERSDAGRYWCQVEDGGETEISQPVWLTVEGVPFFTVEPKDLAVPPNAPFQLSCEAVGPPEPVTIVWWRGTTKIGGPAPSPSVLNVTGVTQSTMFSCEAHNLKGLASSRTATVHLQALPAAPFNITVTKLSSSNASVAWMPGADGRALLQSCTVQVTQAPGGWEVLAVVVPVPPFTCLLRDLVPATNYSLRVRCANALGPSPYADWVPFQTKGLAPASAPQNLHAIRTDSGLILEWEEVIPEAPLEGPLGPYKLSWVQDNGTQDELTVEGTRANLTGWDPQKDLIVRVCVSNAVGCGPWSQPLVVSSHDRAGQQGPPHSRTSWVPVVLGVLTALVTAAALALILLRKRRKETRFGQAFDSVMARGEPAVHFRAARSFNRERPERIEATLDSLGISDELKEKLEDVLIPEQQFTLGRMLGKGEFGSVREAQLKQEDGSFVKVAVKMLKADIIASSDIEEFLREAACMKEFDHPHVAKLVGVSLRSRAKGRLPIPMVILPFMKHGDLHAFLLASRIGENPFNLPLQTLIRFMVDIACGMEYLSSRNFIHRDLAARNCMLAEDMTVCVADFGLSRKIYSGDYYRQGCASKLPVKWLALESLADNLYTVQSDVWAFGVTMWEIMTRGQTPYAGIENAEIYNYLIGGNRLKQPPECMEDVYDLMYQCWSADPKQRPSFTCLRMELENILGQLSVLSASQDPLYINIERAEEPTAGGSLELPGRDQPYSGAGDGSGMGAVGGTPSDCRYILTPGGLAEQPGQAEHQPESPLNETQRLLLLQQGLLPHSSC
IC50 (Axl) [µM],IC50 (Tyro 3) [µM],IC50 (Mer) [µM],SMILES
> 10,> 10,> 10,"Cc1ccc(Nc2ncc(Br)c(NC3CCCCC3)n2)cc1 [Compound 1, 5-bromo-N4-cyclohexyl-N2-(p-tolyl)pyrimidine-2,4-diamine]"
–,> 10,> 10,"Cn1cc(-c2cnc(Cl)nc2NC2CCCCC2)cn1 [Compound 4, 2-chloro-N4-cyclohexyl-5-(1-methyl-1H-pyrazol-4-yl)pyrimidine-4-amine]"
> 10,–,> 2,"Cn1cc(-c2cnc(Nc3cc(Cl)cc(Cl)c3)nc2NC2CCCCC2)cn1 [Compound 5, N4-cyclohexyl-N2-(3,5-dichlorophenyl)-5-(1-methyl-1H-pyrazol-4-yl)pyrimidine-2,4-diamine]"
> 10,6.2e-06,–,"Cn1cc(-c2cnc(Nc3cc(C(F)(F)F)cc(C(F)(F)F)c3)nc2Nc2ccc3c(c2)CN(C(=O)C(F)(F)F)CC3)cn1 [Compound 139, 1-(7-(2-(3,5-bis(trifluoromethyl)phenylamino)-5-(1-methyl-1H-pyrazol-4-yl)pyrimidin-4-ylamino)-3,4-dihydroisoquinolin-2(1H)-yl)-2,2,2-trifluoroethan-1-one]"
